#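 Protocol summary: plate cells (96-well), add compound at 5 concentrations, incubate 48 h, interpolate endpoints linearly. TGI marks complete inhibition of growth.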
# Tests used:
# Assay in all cases: DTP human tumour cell line panel, 48 h
# HL-60(TB) leukemia = test system: HL-60(TB) leukemia
# OVCAR-8 ovarian = test system: OVCAR-8 ovarian
# SF-539 CNS = test system: SF-539 CNS
# U251 CNS = test system: U251 CNS
# TK-10 renal = test system: TK-10 renal
# DU-145 prostate = test system: DU-145 prostate
# HCT-116 colon = test system: HCT-116 colon
# KM12 colon = test system: KM12 colon
# HS 578T breast = test system: HS 578T breast
# NCI-H23 lung = test system: NCI-H23 lung
# NCI-H226 lung = test system: NCI-H226 lung
# SNB-19 CNS = test system: SNB-19 CNS
# CAKI-1 renal = test system: CAKI-1 renal
# M14 melanoma = test system: M14 melanoma
# LXFL 529 NSCLC = test system: LXFL 529 NSCLC
# MALME-3M melanoma = test system: MALME-3M melanoma
# SK-MEL-28 melanoma = test system: SK-MEL-28 melanoma
# BT-549 breast = test system: BT-549 breast
# MDA-MB-231 breast = test system: MDA-MB-231 breast
# SF-268 CNS = test system: SF-268 CNS
# MCF7 breast = test system: MCF7 breast
# HCC-2998 colon = test system: HCC-2998 colon
# SW-620 colon = test system: SW-620 colon
# OVCAR-3 ovarian = test system: OVCAR-3 ovarian
# K-562 leukemia = test system: K-562 leukemia
# SN12C renal = test system: SN12C renal
# T-47D breast = test system: T-47D breast
# RXF 393 renal = test system: RXF 393 renal
# DMS 273 small cell lung = test system: DMS 273 small cell lung
# NCI-H460 lung = test system: NCI-H460 lung
# DMS 114 small cell lung = test system: DMS 114 small cell lung
# UO-31 renal = test system: UO-31 renal
# A549 NSCLC = test system: A549 NSCLC
# COLO 205 colon = test system: COLO 205 colon
# SR leukemia = test system: SR leukemia
# XF 498 CNS = test system: XF 498 CNS
# HOP-18 NSCLC = test system: HOP-18 NSCLC
# EKVX NSCLC = test system: EKVX NSCLC
# A498 renal = test system: A498 renal
# UACC-257 melanoma = test system: UACC-257 melanoma
# 786-0 renal = test system: 786-0 renal
# HOP-92 NSCLC = test system: HOP-92 NSCLC
# IGROV1 ovarian = test system: IGROV1 ovarian
# RPMI-8226 leukemia = test system: RPMI-8226 leukemia
# OVCAR-5 ovarian = test system: OVCAR-5 ovarian
# UACC-62 melanoma = test system: UACC-62 melanoma
# NCI-H522 lung = test system: NCI-H522 lung
# SNB-78 CNS = test system: SNB-78 CNS
# HCT-15 colon = test system: HCT-15 colon
# HOP-62 NSCLC = test system: HOP-62 NSCLC
# SK-MEL-2 melanoma = test system: SK-MEL-2 melanoma
# M19-MEL melanoma = test system: M19-MEL melanoma
# SF-295 CNS = test system: SF-295 CNS
# SK-MEL-5 melanoma = test system: SK-MEL-5 melanoma
# CCRF-CEM leukemia = test system: CCRF-CEM leukemia
# KM20L2 colon = test system: KM20L2 colon
# PC-3 prostate = test system: PC-3 prostate
# ACHN renal = test system: ACHN renal
# OVCAR-4 ovarian = test system: OVCAR-4 ovarian
# MOLT-4 leukemia = test system: MOLT-4 leukemia
# LOX IMVI melanoma = test system: LOX IMVI melanoma
# HT29 colon = test system: HT29 colon
# SK-OV-3 ovarian = test system: SK-OV-3 ovarian
# SNB-75 CNS = test system: SNB-75 CNS
# DLD-1 colon = test system: DLD-1 colon
smiles,measurement,setting,value
COc1cc2c(c(OC)c1OC)-c1cccc(=O)cc1C(NC(C)=O)CC2 (stereo not drawn),TGI,HL-60(TB) leukemia,0.472 µM
same,TGI,OVCAR-8 ovarian,> 16.7 µM
same,TGI,SF-539 CNS,0.229 µM
same,TGI,U251 CNS,> 100 µM
same,TGI,TK-10 renal,> 100 µM
same,TGI,DU-145 prostate,> 100 µM
same,TGI,HCT-116 colon,25.6 µM
same,TGI,KM12 colon,1.75 µM
same,TGI,HS 578T breast,> 100 µM
same,TGI,NCI-H23 lung,11.1 µM
same,TGI,NCI-H226 lung,14.8 µM
same,TGI,SNB-19 CNS,> 100 µM
same,TGI,CAKI-1 renal,> 100 µM
same,TGI,M14 melanoma,> 67.8 µM
same,TGI,LXFL 529 NSCLC,> 100 µM
same,TGI,MALME-3M melanoma,> 100 µM
same,TGI,SK-MEL-28 melanoma,> 100 µM
same,TGI,BT-549 breast,> 100 µM
same,TGI,MDA-MB-231 breast,> 100 µM
same,TGI,SF-268 CNS,> 100 µM
same,TGI,MCF7 breast,> 100 µM
same,TGI,HCC-2998 colon,> 13.6 µM
same,TGI,SW-620 colon,> 100 µM
same,TGI,OVCAR-3 ovarian,1.16 µM
same,TGI,K-562 leukemia,> 100 µM
same,TGI,SN12C renal,> 100 µM
same,TGI,T-47D breast,> 100 µM
same,TGI,RXF 393 renal,0.952 µM
same,TGI,DMS 273 small cell lung,> 100 µM
same,TGI,NCI-H460 lung,3.47 µM
same,TGI,DMS 114 small cell lung,0.391 µM
same,TGI,UO-31 renal,> 100 µM
same,TGI,A549 NSCLC,> 100 µM
same,TGI,COLO 205 colon,1.79 µM
same,TGI,SR leukemia,> 100 µM
same,TGI,XF 498 CNS,12.3 µM
same,TGI,HOP-18 NSCLC,> 100 µM
same,TGI,EKVX NSCLC,> 100 µM
same,TGI,A498 renal,14.7 µM
same,TGI,UACC-257 melanoma,> 100 µM
same,TGI,786-0 renal,> 63.1 µM
same,TGI,HOP-92 NSCLC,4.92 µM
same,TGI,IGROV1 ovarian,> 100 µM
same,TGI,RPMI-8226 leukemia,> 100 µM
same,TGI,OVCAR-5 ovarian,> 100 µM
same,TGI,UACC-62 melanoma,> 100 µM
same,TGI,NCI-H522 lung,0.203 µM
same,TGI,SNB-78 CNS,> 100 µM
same,TGI,HCT-15 colon,> 100 µM
same,TGI,HOP-62 NSCLC,> 39.6 µM
same,TGI,SK-MEL-2 melanoma,> 24.8 µM
same,TGI,M19-MEL melanoma,> 100 µM
same,TGI,SF-295 CNS,0.267 µM
same,TGI,SK-MEL-5 melanoma,3.16 µM
same,TGI,CCRF-CEM leukemia,> 100 µM
same,TGI,KM20L2 colon,1.86 µM
same,TGI,PC-3 prostate,> 100 µM
same,TGI,ACHN renal,> 100 µM
same,TGI,OVCAR-4 ovarian,> 100 µM
same,TGI,MOLT-4 leukemia,> 100 µM
same,TGI,LOX IMVI melanoma,> 100 µM
COCN1C(=O)C2CC(/C=C/C(N)=O)=CN2C(=O)c2ccccc21 (stereo not drawn),TGI,HL-60(TB) leukemia,> 100 µM
same,TGI,OVCAR-8 ovarian,> 100 µM
same,TGI,SF-539 CNS,> 100 µM
same,TGI,U251 CNS,> 100 µM
same,TGI,TK-10 renal,> 100 µM
same,TGI,HCT-116 colon,> 100 µM
same,TGI,KM12 colon,> 100 µM
same,TGI,NCI-H23 lung,> 100 µM
same,TGI,HT29 colon,> 100 µM
same,TGI,NCI-H226 lung,> 100 µM
same,TGI,SNB-19 CNS,> 100 µM
same,TGI,M14 melanoma,> 100 µM
same,TGI,LXFL 529 NSCLC,> 100 µM
same,TGI,SK-MEL-28 melanoma,> 100 µM
same,TGI,SF-268 CNS,> 100 µM
same,TGI,HCC-2998 colon,> 100 µM
same,TGI,SW-620 colon,> 100 µM
same,TGI,OVCAR-3 ovarian,> 100 µM
same,TGI,K-562 leukemia,> 100 µM
same,TGI,SN12C renal,> 100 µM
same,TGI,SK-OV-3 ovarian,> 100 µM
same,TGI,SNB-75 CNS,> 100 µM
same,TGI,RXF 393 renal,> 100 µM
same,TGI,DMS 273 small cell lung,> 100 µM
same,TGI,NCI-H460 lung,> 100 µM
same,TGI,DMS 114 small cell lung,> 100 µM
same,TGI,A549 NSCLC,> 100 µM
same,TGI,COLO 205 colon,> 100 µM
same,TGI,XF 498 CNS,> 100 µM
same,TGI,HOP-18 NSCLC,> 100 µM
same,TGI,EKVX NSCLC,> 100 µM
same,TGI,786-0 renal,> 100 µM
same,TGI,IGROV1 ovarian,> 100 µM
same,TGI,RPMI-8226 leukemia,> 100 µM
same,TGI,DLD-1 colon,> 100 µM
same,TGI,UACC-62 melanoma,> 100 µM
same,TGI,NCI-H522 lung,> 100 µM
same,TGI,SNB-78 CNS,> 100 µM
same,TGI,HOP-62 NSCLC,> 100 µM
same,TGI,M19-MEL melanoma,> 100 µM
same,TGI,SF-295 CNS,> 100 µM
same,TGI,SK-MEL-5 melanoma,> 100 µM
same,TGI,CCRF-CEM leukemia,> 100 µM
same,TGI,KM20L2 colon,> 100 µM
same,TGI,OVCAR-4 ovarian,> 100 µM
same,TGI,MOLT-4 leukemia,> 100 µM
same,TGI,LOX IMVI melanoma,> 100 µM

# Source: PubChem BioAssay (NCI)
